Source: PubChem BioAssay (NCI)
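Results reflect a 48-hour exposure of cells in 96-well plates to compound at five concentrations. TGI marks complete inhibition of growth.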

What was measured:
Test in all cases: NCI-60 cell line screen, 48 h
[1] = tested on: NCI-H226 lung
[2] = tested on: OVCAR-4 ovarian
[3] = tested on: SF-539 CNS
[4] = tested on: DU-145 prostate
[5] = tested on: KM12 colon
[6] = tested on: MDA-MB-231 breast
[7] = tested on: MDA-N
[8] = tested on: HCC-2998 colon
[9] = tested on: K-562 leukemia
[10] = tested on: HCT-116 colon
[11] = tested on: UACC-62 melanoma
[12] = tested on: HT29 colon
[13] = tested on: HOP-92 NSCLC
[14] = tested on: MCF7 breast
[15] = tested on: NCI/ADR-RES ovarian
[16] = tested on: SN12C renal
[17] = tested on: T-47D breast
[18] = tested on: RXF 393 renal
[19] = tested on: UACC-257 melanoma
[20] = tested on: A549 NSCLC
[21] = tested on: PC-3 prostate
[22] = tested on: HOP-62 NSCLC
[23] = tested on: SK-MEL-2 melanoma
[24] = tested on: NCI-H23 lung
[25] = tested on: U251 CNS
[26] = tested on: M14 melanoma
[27] = tested on: MOLT-4 leukemia
[28] = tested on: SF-295 CNS
[29] = tested on: LOX IMVI melanoma
[30] = tested on: 786-0 renal
[31] = tested on: SR leukemia
[32] = tested on: RPMI-8226 leukemia
[33] = tested on: SNB-19 CNS
[34] = tested on: OVCAR-8 ovarian
[35] = tested on: IGROV1 ovarian
[36] = tested on: BT-549 breast
[37] = tested on: SW-620 colon
[38] = tested on: HCT-15 colon
[39] = tested on: CAKI-1 renal
[40] = tested on: SK-MEL-5 melanoma
[41] = tested on: UO-31 renal
[42] = tested on: MDA-MB-435
[43] = tested on: EKVX NSCLC
[44] = tested on: COLO 205 colon
[45] = tested on: OVCAR-5 ovarian
[46] = tested on: OVCAR-3 ovarian
[47] = tested on: A498 renal
[48] = tested on: NCI-H460 lung
[49] = tested on: SNB-75 CNS
[50] = tested on: SK-MEL-28 melanoma
[51] = tested on: HL-60(TB) leukemia
[52] = tested on: ACHN renal
[53] = tested on: NCI-H522 lung
[54] = tested on: HS 578T breast
[55] = tested on: SF-268 CNS
[56] = tested on: TK-10 renal
[57] = tested on: SK-OV-3 ovarian
[58] = tested on: MALME-3M melanoma
[59] = tested on: CCRF-CEM leukemia

SMILES: COc1ccc(C2SCC(=O)N2NC(=O)C(C)Oc2ccc(Cl)cc2Cl)cc1 (stereo not given)
- TGI [1]: 33.6 µM
- TGI [2]: 52.6 µM
- TGI [3]: 35.9 µM
- TGI [4]: > 100 µM
- TGI [5]: > 100 µM
- TGI [6]: 81 µM
- TGI [7]: > 100 µM
- TGI [8]: > 100 µM
- TGI [9]: 89.8 µM
- TGI [10]: > 100 µM
- TGI [11]: > 100 µM
- TGI [12]: > 100 µM
- TGI [13]: 63.6 µM
- TGI [14]: > 100 µM
- TGI [15]: > 100 µM
- TGI [16]: > 100 µM
- TGI [17]: > 100 µM
- TGI [18]: 59.2 µM
- TGI [19]: > 100 µM
- TGI [20]: > 100 µM
- TGI [21]: 75.6 µM
- TGI [22]: 48.2 µM
- TGI [23]: > 100 µM
- TGI [24]: > 100 µM
- TGI [25]: > 100 µM
- TGI [26]: > 100 µM
- TGI [27]: 94.6 µM
- TGI [28]: > 100 µM
- TGI [29]: > 100 µM
- TGI [30]: 41.7 µM
- TGI [31]: 17.3 µM
- TGI [32]: > 100 µM
- TGI [33]: > 100 µM
- TGI [34]: > 100 µM
- TGI [35]: > 100 µM
- TGI [36]: 52.8 µM
- TGI [37]: > 100 µM
- TGI [38]: > 100 µM
- TGI [39]: 47.3 µM
- TGI [40]: > 100 µM
- TGI [41]: > 100 µM
- TGI [42]: > 100 µM
- TGI [43]: > 100 µM
- TGI [44]: > 100 µM
- TGI [45]: > 100 µM
- TGI [46]: > 100 µM
- TGI [47]: 76.4 µM
- TGI [48]: > 100 µM
- TGI [49]: 51.1 µM
- TGI [50]: 96.3 µM
- TGI [51]: 34.8 µM
- TGI [52]: > 100 µM
- TGI [53]: > 100 µM
- TGI [54]: > 100 µM
- TGI [55]: > 100 µM
- TGI [56]: > 100 µM
- TGI [57]: > 100 µM

SMILES: CCn1c(=O)c2c3ccc(OC(C)=O)cc3[nH]c2c2ccc(OC(C)=O)cc21
- TGI [1]: > 100 µM
- TGI [2]: > 100 µM
- TGI [3]: > 100 µM
- TGI [4]: 49.1 µM
- TGI [5]: > 100 µM
- TGI [6]: > 100 µM
- TGI [7]: > 100 µM
- TGI [8]: 54.4 µM
- TGI [9]: > 100 µM
- TGI [10]: 30.1 µM
- TGI [11]: > 100 µM
- TGI [12]: > 100 µM
- TGI [13]: > 100 µM
- TGI [14]: > 100 µM
- TGI [15]: > 100 µM
- TGI [16]: > 100 µM
- TGI [17]: 93.9 µM
- TGI [18]: > 100 µM
- TGI [19]: > 100 µM
- TGI [20]: > 100 µM
- TGI [21]: > 100 µM
- TGI [22]: > 100 µM
- TGI [24]: > 100 µM
- TGI [25]: > 100 µM
- TGI [26]: > 100 µM
- TGI [27]: 74.5 µM
- TGI [58]: > 100 µM
- TGI [28]: > 100 µM
- TGI [30]: > 100 µM
- TGI [31]: > 100 µM
- TGI [33]: > 100 µM
- TGI [34]: > 100 µM
- TGI [35]: > 100 µM
- TGI [36]: > 100 µM
- TGI [37]: > 100 µM
- TGI [38]: > 100 µM
- TGI [39]: > 100 µM
- TGI [40]: > 100 µM
- TGI [41]: > 100 µM
- TGI [42]: > 100 µM
- TGI [59]: > 100 µM
- TGI [44]: > 100 µM
- TGI [45]: > 100 µM
- TGI [46]: > 100 µM
- TGI [48]: > 100 µM
- TGI [49]: 89.5 µM
- TGI [50]: > 100 µM
- TGI [52]: 89.6 µM
- TGI [53]: > 100 µM
- TGI [54]: > 100 µM
- TGI [55]: > 100 µM
- TGI [56]: > 100 µM
- TGI [57]: > 100 µM
